From patent US7906655B2, “Hepatitis C virus inhibitors” (Bristol-Myers Squibb Company, priority 2008, dated 2011) come the findings set out here.

For the first assay, the system named is HCV 1b genotype. Description: HCV Replicon assay (HCV-neo replicon cells, wild-type). Particulars: HCV 1b genotype replicon; class symbols. The assay is classed as cell-based. In a few lines: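 Assay used wild-type HCV genotype 1b replicon cells carrying neo, with luciferase reporter read-outs in some formats.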
Consider `O=C(C(=O)N1CCC[C@H]1c1nc2cc(C#Cc3ccc4[nH]c([C@@H]5CCCN5C(=O)C(=O)c5ccccc5)nc4c3)ccc2[nH]1)c1ccccc1` [Example M26.3, 2.2′-(1,2-ethynediylbis(1H-benzimidazole-5,2-diyl(2S)-2,1-pyrrolidinediyl))bis(2-oxo-1-phenylethanone)], for which the EC50 lay in the range of 100 to 999 nM.

For the compound `O=C([C@@H]1CCCO1)N1CCC[C@H]1c1nc2cc(C#Cc3ccc4[nH]c([C@@H]5CCCN5C(=O)[C@@H]5CCCO5)nc4c3)ccc2[nH]1` [Example M26.5], the EC50 fell in the range of 100 to 999 nM. Still for that read-out and setting: then `C[C@H](NC(=O)[C@H](O)c1ccccc1)c1nc2cc(C#Cc3ccc4[nH]c([C@H](C)NC(=O)[C@H](O)c5ccccc5)nc4c3)ccc2[nH]1` [Example M27], with below 4.57 nM. On the same count and under the same terms, the same measure for `C[C@H](NC(=O)[C@@](C)(O)c1ccccc1)c1nc2cc(C#Cc3ccc4[nH]c([C@H](C)NC(=O)[C@@](C)(O)c5ccccc5)nc4c3)ccc2[nH]1` [Example M28]: below 4.57 nM; for `C[C@@H](c1nc2cc(C#Cc3ccc4[nH]c([C@H](C)N(C)C(=O)Cc5ccccc5)nc4c3)ccc2[nH]1)N(C)C(=O)Cc1ccccc1` [Example M32]: below 4.57 nM. As for `C[C@@H](c1nc2cc(C#Cc3ccc4[nH]c([C@H](C)N(C)C(=O)[C@H](O)c5ccccc5)nc4c3)ccc2[nH]1)N(C)C(=O)[C@H](O)c1ccccc1` [Example M33], the EC50 was below 4.57 nM. On the same count and under the same terms, then `C[C@@H](c1nc2cc(C#Cc3ccc4nc([C@H](C)N(C)C(=O)[C@@H](c5ccccc5)N(C)C)[nH]c4c3)ccc2[nH]1)N(C)C(=O)[C@@H](c1ccccc1)N(C)C` [Example M35], with below 4.57 nM.

`O=C(Cc1ccccn1)N1CCC[C@H]1c1nc2cc(CCc3ccc4[nH]c([C@@H]5CCCN5C(=O)Cc5ccccn5)nc4c3)ccc2[nH]1` [Example M43, 5,5′-(1,2-ethanediyl)bis(2-((2S)-1-(2-pyridinylacetyl)-2-pyrrolidinyl)-1H-benzimidazole)]: the EC50 fell in the range of 4.57 to 99 nM.

Still in this assay, the particulars now being: HCV 1b genotype replicon; numeric values.
As for `C[C@@H](c1nc2cc(C#Cc3ccc4[nH]c([C@H](C)N(C)C(=O)[C@@](C)(O)c5ccccc5)nc4c3)ccc2[nH]1)N(C)C(=O)[C@@](C)(O)c1ccccc1` [Example M34], the EC50 was determined as 40 nM. Still for that read-out and setting: the same measure for `COC(=O)N[C@@H](C(=O)N(C)[C@@H](C)c1nc2cc(C#Cc3ccc4[nH]c([C@H](C)N(C)C(=O)[C@H](NC(=O)OC)c5ccccc5)nc4c3)ccc2[nH]1)c1ccccc1` [Example M36, dimethyl (1,2-ethynediylbis(1H-benzimidazole-5,2-diyl(1S)-1,1-ethanediyl(methylimino)((1R)-2-oxo-1-phenyl-2,1-ethanediyl)))biscarbamate]: 0.005 nM.

The same assay, now with this note: Hepatitis C virus, HCV 1b genotype replicon; class symbols.
Consider `O=C(c1nc(Cl)cc2ccccc12)N1CCC[C@H]1c1nc2cc(C#Cc3ccc4nc([C@@H]5CCCN5C(=O)c5nc(Cl)cc6ccccc56)[nH]c4c3)ccc2[nH]1` [Example M26.2, 3-chloro-1-(((2S)-2-(5-((2-((2S)-1-((3-chloro-1-isoquinolinyl)carbonyl)-2-pyrrolidinyl)-1H-benzimidazol-6-yl)ethynyl)-1H-benzimidazol-2-yl)-1-pyrrolidinyl)carbonyl)isoquinoline], for which the EC50 fell in the range of 100 to 999 nM. Still for that read-out and setting: then `O=C(OCc1ccccc1)N1CCC[C@H]1c1nc2cc(C#Cc3ccc4nc([C@@H]5CCCN5C(=O)OCc5ccccc5)[nH]c4c3)ccc2[nH]1` [Example M26.4, benzyl (2S)-2-(5-((2-((2S)-1-((benzyloxy)carbonyl)-2-pyrrolidinyl)-1H-benzimidazol-6-yl)ethynyl)-1H-benzimidazol-2-yl)-1-pyrrolidinecarboxylate], with 4.57 to 99 nM. Turning to `O=C(c1ccco1)N1CCC[C@H]1c1nc2cc(C#Cc3ccc4[nH]c([C@@H]5CCCN5C(=O)c5ccco5)nc4c3)ccc2[nH]1` [Example M26.6, 5,5′-(1,2-ethynediyl)bis(2-((2S)-1-(2-furoyl)-2-pyrrolidinyl)-1H-benzimidazole)], the EC50 was in the range of 4.57 to 99 nM. Same read-out and setting: the same measure for `C[C@H](NC(=O)[C@@H](c1ccccc1)N(C)C)c1nc2cc(C#Cc3ccc4nc([C@H](C)NC(=O)[C@@H](c5ccccc5)N(C)C)[nH]c4c3)ccc2[nH]1` [Example M29, (2R)-2-(dimethylamino)-N-((1S)-1-(5-((2-((1S)-1-(((2R)-2-(dimethylamino)-2-phenylacetyl)amino)ethyl)-1H-benzimidazol-6-yl)ethynyl)-1H-benzimidazol-2-yl)ethyl)-2-phenylacetamide]: below 4.57 nM; for `CC(=O)N[C@@H](C(=O)N[C@@H](C)c1nc2cc(C#Cc3ccc4nc([C@H](C)NC(=O)[C@H](NC(C)=O)c5ccccc5)[nH]c4c3)ccc2[nH]1)c1ccccc1` [Example M30, (2R)-2-acetamido-N-((1S)-1-(5-((2-((1S)-1-(((2R)-2-acetamido-2-phenylacetyl)amino)ethyl)-1H-benzimidazol-6-yl)ethynyl)-1H-benzimidazol-2-yl)ethyl)-2-phenylacetamide]: below 4.57 nM.

As to `O=C(Cc1ccccc1)N1CCC[C@H]1c1nc2cc(C#Cc3ccc4[nH]c([C@@H]5CCCN5C(=O)Cc5ccccc5)nc4c3)ccc2[nH]1` [Example M37, 5,5′-(1,2-ethynediyl)bis(2-((2S)-1-(phenylacetyl)-2-pyrrolidinyl)-1H-benzimidazole)], the EC50 was below 4.57 nM. For `O=C(Cc1ccccc1)N1C[C@H](O)C[C@H]1c1nc2cc(C#Cc3ccc4[nH]c([C@@H]5C[C@@H](O)CN5C(=O)Cc5ccccc5)nc4c3)ccc2[nH]1` [Example M37.1, (3R,5S,3′R,5′S)-5,5′-(1,2-ethynediylbis(1H-benzimidazole-5,2-diyl))bis(1-(phenylacetyl)-3-pyrrolidinol)], the EC50 is below 4.57 nM.

On to `O=C(Cc1ccccc1)N1C[C@@H](N2CCCC2)C[C@H]1c1nc2cc(C#Cc3ccc4[nH]c([C@@H]5C[C@H](N6CCCC6)CN5C(=O)Cc5ccccc5)nc4c3)ccc2[nH]1` [Example M37.2, (3′S,5′S,3″″S,5″″S)-5′,5″-(1,2-ethynediylbis(1H-benzimidazole-5,2-diyl))bis(1′-(phenylacetyl)-1,3′-bipyrrolidine)], for which the concentration for a half-maximal effect (EC50) was below 4.57 nM. For `O=C(Cc1ccccc1)N1C[C@@H](N2CCOCC2)C[C@H]1c1nc2cc(C#Cc3ccc4[nH]c([C@@H]5C[C@H](N6CCOCC6)CN5C(=O)Cc5ccccc5)nc4c3)ccc2[nH]1` [Example M37.3, 5,5′-(1,2-ethynediyl)bis(2-((2S,4S)-4-(4-morpholinyl)-1-(phenylacetyl)-2-pyrrolidinyl)-1H-benzimidazole)], the EC50 lay in the range of 4.57 to 99 nM.

Turning to `O=C(Cc1ccccc1)N1CCC[C@H]1c1nc2cc(CCc3ccc4[nH]c([C@@H]5CCCN5C(=O)Cc5ccccc5)nc4c3)ccc2[nH]1` [Example M38], the EC50 is below 4.57 nM. Take `O=C(Cc1ccccc1)N1CCC[C@H]1c1nc2cc(-c3ccc4nc([C@@H]5CCCN5C(=O)Cc5ccccc5)[nH]c4c3)ccc2[nH]1` [Example M39, 2,2′-bis((2S)-1-(phenylacetyl)-2-pyrrolidinyl)-1H,1′H-5,5′-bibenzimidazole]: the concentration giving a half-maximal response (EC50) was in the range of 100 to 999 nM. In the case of `O=C(OCc1ccccc1)N1CCC[C@H]1c1nc2cc(-c3ccc4nc([C@@H]5CCCN5C(=O)OCc5ccccc5)[nH]c4c3)ccc2[nH]1` [Example M40, dibenzyl(2S,2′S)-2,2′-(1H,1′H-5,5′-bibenzimidazole-2,2′-diyl)di(1-pyrrolidinecarboxylate)], the EC50 lay in the range of 100 to 999 nM. Same read-out and setting: the same measure for `O=C([C@H]1CCCO1)N1CCC[C@H]1c1nc2cc(CCc3ccc4[nH]c([C@@H]5CCCN5C(=O)[C@H]5CCCO5)nc4c3)ccc2[nH]1` [Example M42, 5,5′-(1,2-ethanediyl)bis(2-((2S)-1-((2R)-tetrahydro-2-furanylcarbonyl)-2-pyrrolidinyl)-1H-benzimidazole)]: 4.57 to 99 nM. With `O=C(CC1CC1)N1CCC[C@H]1c1nc2cc(CCc3ccc4nc([C@@H]5CCCN5C(=O)CC5CC5)[nH]c4c3)ccc2[nH]1` [Example M44, 2-((2S)-1-(cyclopropylacetyl)-2-pyrrolidinyl)-5-(2-(2-((2S)-1-(cyclopropylacetyl)-2-pyrrolidinyl)-1H-benzimidazol-6-yl)ethyl)-1H-benzimidazole], the EC50 was in the range of 100 to 999 nM. Still for that read-out and setting: the same measure for `O=C(C1CCC1)N1CCC[C@H]1c1nc2cc(CCc3ccc4nc([C@@H]5CCCN5C(=O)C5CCC5)[nH]c4c3)ccc2[nH]1` [Example M45, 2-((2S)-1-(cyclobutylcarbonyl)-2-pyrrolidinyl)-5-(2-(2-((2S)-1-(cyclobutylcarbonyl)-2-pyrrolidinyl)-1H-benzimidazol-6-yl)ethyl)-1H-benzimidazole]: 100 to 999 nM. On to `O=C(c1cccs1)N1CCC[C@H]1c1nc2cc(CCc3ccc4[nH]c([C@@H]5CCCN5C(=O)c5cccs5)nc4c3)ccc2[nH]1` [Example M45.1, 5,5′-(1,2-ethanediyl)bis(2-((2S)-1-(2-thienylcarbonyl)-2-pyrrolidinyl)-1H-benzimidazole)], for which the EC50 lay within 100 to 999 nM. Consider `O=C(Cc1cccnc1)N1CCC[C@H]1c1nc2cc(CCc3ccc4[nH]c([C@@H]5CCCN5C(=O)Cc5cccnc5)nc4c3)ccc2[nH]1` [Example M45.2, 5,5′-(1,2-ethanediyl)bis(2-((2S)-1-(3-pyridinylacetyl)-2-pyrrolidinyl)-1H-benzimidazole)], for which the EC50 lay within 4.57 to 99 nM.

The assay is the same for the next values; noted with them: Hepatitis C virus, HCV 1b genotype replicon; numeric values.
Take `COC(=O)N[C@@H](C(=O)N[C@@H](C)c1nc2cc(C#Cc3ccc4[nH]c([C@H](C)NC(=O)[C@H](NC(=O)OC)c5ccccc5)nc4c3)ccc2[nH]1)c1ccccc1` [Example M31, dimethyl (1,2-ethynediylbis(1H-benzimidazole-5,2-diyl(1S)-1,1-ethanediylimino((1R)-2-oxo-1-phenyl-2,1-ethanediyl)))biscarbamate]: the EC50 is 0.033 nM.

As to `O=C(C1CC1)N1CCC[C@H]1c1nc2ccc(CCc3ccc4nc([C@@H]5CCCN5C(=O)C5CC5)[nH]c4c3)cc2[nH]1` [Example M41, 2-((2S)-1-(cyclopropylcarbonyl)-2-pyrrolidinyl)-5-(2-(2-((2S)-1-(cyclopropylcarbonyl)-2-pyrrolidinyl)-1H-benzimidazol-6-yl)ethyl)-1H-benzimidazole], the EC50 came to 460 nM.
